This passage reports COMMENT, EC50 and CC50 results from patent US20030203410A1, “Gestational agents which modulate cell proliferation” (priority 1999, published 2003).

The test system of one series is San Angelo Virus. Description: microbe, parasite or virus in culture. The class given is cell-based.
The subject of another series is Simian Rotavirus. Description: Inhibition of viral cytopathic effect (visual CPE and neutral red), simian rotavirus in MA104 cells. The format is cell-based. The following applies: for EC50: Rotavirus A, EXPT EV/RtC2. A general note: Damage to the host cells serves as the signal in cytopathic effect assays.
Series [1] deals with Venezuelan Equine Encephalitis. Description: microbe, parasite or virus in culture. As to conditions: for EC50: Venezuelan equine encephalitis virus, EXPT EV/VEC4. The class given is cell-based, Venezuelan equine encephalitis virus.
In series [2] the test system is African green monkey kidney (Vero) cells.
A short description of series [3]: in vitro. As to conditions: African green monkey.
Series [4] can be described thus: in vitro. The following applies: African green monkey. This is another data set of the same source.
Series [5] in a line: in vitro. The following applies: African green monkey. This is another data set of the same source.
In a further series the test system is Vaccinia Virus. Description: microbe, parasite or virus in culture. The class given is cell-based. The following applies: for EC50: Orthopoxvirus vaccinia, EXPT EV/VC2.
Series [6] can be described thus: in vitro. The following applies: African green monkey. The source holds these as a separate data set.
The test system of a further series is Herpes Simplex Type I. Description: Inhibition of viral cytopathic effect (visual CPE and neutral red), HSV-1 in MRC-5 cells. The format is cell-based, type 1 herpes (HSV-1). The following applies: for EC50: EXPT EV/H1C2.
Series [7] is described as follows: in vitro. The following applies: human.

The structures appear in SMILES notation. Converted amounts (≈) assume the structure as drawn.

The term EC50 denotes the concentration at which the effect is half-maximal. Take `NC(=O)c1ncn([C@@H]2O[C@H](CO)[C@@H](O)[C@H]2O)n1` [Ribavirin, ribavirin]: the COMMENT entry in the series with San Angelo Virus is “Very good activity”; in the series with Simian Rotavirus (neutral red assay), “Slight activity”; with Simian Rotavirus (visual) it was “Moderate activity”; in series [1] (visual) it was “Very good activity”. Further, the EC50 in the series with San Angelo Virus (San Angelo virus, Vero) was 30 µg/mL (≈ 123 µM); in the series with Simian Rotavirus (MA104, neutral red assay) it was 56 µg/mL (≈ 229 µM); in the series with Simian Rotavirus (MA104, visual CPE), 18 µg/mL (≈ 73.7 µM); in series [1] (MA104, neutral red assay, neutral red data questionable), over 100 µg/mL; in series [1] (MA104, visual CPE), 7.6 µg/mL (≈ 31.1 µM). Also, the CC50 in series [2] is 530 µg/mL (≈ 2170 µM); in “in vitro [3]”, 560 µg/mL (≈ 2290 µM); in “in vitro [4]” it was over 100 µg/mL; in “in vitro [5]” it was over 100 µg/mL.

Consider `Nc1ccn(C[C@@H](CO)OCP(=O)(O)O)c(=O)n1` [HPMPC, cidofovir], for which the EC50 in the series on Vaccinia Virus (CV-1, neutral red assay) was 1.7 µg/mL (≈ 6.09 µM); in the series on Vaccinia Virus (CV-1, visual CPE), 5.4 µg/mL (≈ 19.3 µM). For the same compound, the values for the COMMENT result in the series with Vaccinia Virus (neutral red assay) and with Vaccinia Virus (visual) were “Excellent activity” and “Very good activity”, respectively. The compound further returned a CC50 in “in vitro [6]” of over 100 µg/mL.

Turning to `Nc1nc2c(ncn2COCCO)c(=O)[nH]1` [Acyclovir, acyclovir], the EC50 came out at 0.4 µg/mL (≈ 1.78 µM) in the series on Herpes Simplex Type I (Human alphaherpesvirus 1, MRC5, neutral red assay) and 0.6 µg/mL (≈ 2.66 µM) in the series on Herpes Simplex Type I (Human alphaherpesvirus 1, MRC5, visual CPE). For the same compound, the COMMENT result in the series with Herpes Simplex Type I (neutral red assay) and with Herpes Simplex Type I (visual) was “Excellent activity” each time. Further, the CC50 in the series “in vitro [7]” is over 100 µg/mL.
